Measured values reported in PubChem BioAssay AID2061108 (Research group of Professor Matthew Todd, School of …, 2025).
Calls of active or inactive are those of the source. No rule for the calls is given here.

Columns and labels:
Test in all cases: microbial growth inhibition plus red cell haemolysis – Idler compounds, first plate, PMBN-permeabilized strains, profiling panel (AID 2061108)
Set-up in all cases: haemolysis: dose or concentration left out as unconfirmed
[1] = tested on: E. coli NCTC 12923 + PMBN growth inhibition, 100 uM; details: S. aureus ATCC 9144 growth inhibition; measured here: E. coli plus PMBN; at 100 µM; stronger effect = higher value
[2] = tested on: red blood cell haemolysis; details: stronger effect = higher value; dose or concentration not given here
[3] = tested on: E. coli NCTC 12923 growth inhibition, 100 uM; details: E. coli NCTC 12923 growth inhibition, 100 µM; stronger effect = higher value
[4] = tested on: C. albicans NCPF 3281 growth inhibition, 100 uM; details: S. aureus ATCC 9144 growth inhibition; measured here: C. albicans NCPF 3281; at 100 µM; stronger effect = higher value
[5] = tested on: A. baumannii ATCC 17978 growth inhibition, 100 uM; details: S. aureus ATCC 9144 growth inhibition; measured here: A. baumannii ATCC 17978; at 100 µM; stronger effect = higher value
[6] = tested on: M. abscessus growth inhibition, 10 uM; details: S. aureus ATCC 9144 growth inhibition; measured here: M. abscessus; at 10 µM
[7] = tested on: M. avium growth inhibition, 10 uM; details: M. avium growth inhibition, 10 µM
[8] = tested on: A. baumannii ATCC 17978 + PMBN growth inhibition, 100 uM; details: A. baumannii plus PMBN growth inhibition, 100 µM; stronger effect = higher value
[9] = tested on: S. aureus ATCC 9144 growth inhibition, 100 uM; details: S. aureus ATCC 9144 growth inhibition; at 100 µM; stronger effect = higher value

Row | Compound | inhibition [1] | haemolysis [2] | inhibition [3] | inhibition [4] | inhibition [5] | inhibition [6] | inhibition [7] | inhibition [8] | inhibition [9]
1 | O=C(Nc1nnc2ccccn12)c1ccc2cccc(Cl)c2n1 | -43.8% | 2.79% | -51.6% | 25.9% | -14.5% | -0.577% | -0.879% | -14.2% | -41.5% (inactive)
2 | COc1ccc(Nc2nc(-c3ccoc3)cs2)c(C)c1 | -20.1% | 0.164% | -15% | -127% | -13.9% | -1.05% | 0.988% | 16.4% | -12.5% (inactive)
3 | CCn1c(SCC(=O)N(C)c2ccccc2)nnc1-c1cn(C)nc1OC | -23.5% | 0.564% | -41.1% | 8.04% | -2.53% | 0.00036% | -1.26% | 4.29% | -11.4% (inactive)
4 | O=S(=O)(Nc1ccc(Oc2ccccc2)cc1)c1ccc(-c2nn[nH]n2)cc1 | 21.7% | 1.69% | 0.135% | -30.5% | -18.3% | -0.359% | 0.208% | 34.1% | 70% (inactive)
5 | COc1ccc(/C=C(\C#N)S(=O)(=O)c2ccccc2)cc1OC | 3.58% | 2.6% | -0.135% | -60.8% | 0.595% | -0.905% | -0.352% | 12.6% | 16.3% (inactive)
6 | O=C(Nc1ccccc1)C(Cl)C(=O)c1ccccc1 (stereo unspecified) | 61.4% | -0.111% | 20.3% | 101% | 37.9% | -1.14% | 1.66% | 98.6% | 100%
7 | O=C(N1CCCCC1)N1CCCCC1Cc1ccccc1 (stereo unspecified) | 18.1% | -0.191% | -3.65% | -79.6% | -2.26% | -0.54% | 0.89% | 16.8% | 7% (inactive)
8 | COc1cc2nc(Nc3cc(C)[nH]n3)nc(NC3CCN(C(=O)OC(C)(C)C)CC3)c2cc1OC | 78.8% | 2.1% | 14.5% | -108% | 48.6% | 0.14% | 3.94% | 70.4% | 99.8%
9 | COc1cc(OC)cc(C2(NC(=O)c3ccc(N4CCOCC4)cc3)COC2)c1 | 0.123% | -0.148% | 0.541% | -72% | 2.38% | -0.558% | -0.0617% | 19.4% | 11.7% (inactive)
10 | O=C(Nc1ccc(-c2nn[nH]n2)cc1)c1ccc(Oc2ccccc2)cc1 | 17.2% | -0.191% | 0.27% | -19.7% | -0.833% | -0.941% | -1.24% | 16.4% | 16.2% (inactive)
11 | COC(=O)c1ccc(C2CN(c3ccnc(S(=O)(=O)F)c3)C2)nc1 | 11.4% | -0.16% | 1.62% | -28.7% | 0.357% | -1.03% | 0.0988% | 22.5% | 16.7% (inactive)
12 | O=C(Cc1ccc(C(F)(F)F)nc1)N1Cc2cccnc2C1 | -4.27% | 4.32% | -5.95% | -94.2% | 0.241% | -0.0961% | 0.169% | 22% | 6.84% (inactive)
13 | CC(N)C(=O)NS(=O)(=O)c1cccc(-c2cc3ncnc(N)c3s2)c1 (stereo unspecified) | -31.8% | 0.129% | -32.4% | -29.6% | -14.5% | -0.285% | 45.2% | -25.6% | -35.4% (inactive)
14 | O=C(N/N=C/c1cnc(C(F)(F)F)nc1)c1ccncc1 | 11.2% | 0.15% | -2.16% | 17% | 10.4% | 0.125% | 1.52% | 21.6% | 16.7% (inactive)
